Experimental data: ChEMBL document CHEMBL3244109, “Synthesis of cyclohexyl carbocyclic puromycin and its inhibition of protein synthesis” (J Med Chem, 1977)
Active and inactive are the calls of the source. The calls are words filed in the database; no cut-off is given here.

Assay: Inhibition of rate of poly(U,C) (unknown origin)-directed L-[14C]poly-(phenylalanine) formation in Escherichia coli cell-free ribosome system at 10^-3 M by liquid scintillation counting
Format: functional

Row | Compound | inhibition
1 | COc1ccc(C[C@H](N)C(=O)N[C@H]2CCC[C@@H](n3cnc4c(N(C)C)ncnc43)[C@@H]2O)cc1 | inactive
2 | COc1ccc(C[C@H](N)C(=O)N[C@H]2CC[C@@H](n3cnc4c(N(C)C)ncnc43)[C@@H]2O)cc1 | inactive
3 | COc1ccc(C[C@H](N)C(=O)N[C@@H]2CCC[C@H](n3cnc4c(N(C)C)ncnc43)[C@H]2O)cc1 | inactive
4 | COc1ccc(C[C@H](N)C(=O)N[C@@H]2CC[C@H](n3cnc4c(N(C)C)ncnc43)[C@H]2O)cc1 | inactive
5 | COc1ccc(C[C@H](N)C(=O)N[C@H]2CC[C@H](n3cnc4c(N(C)C)ncnc43)[C@H]2O)cc1 | inactive
